{
  "source": "ChEMBL document CHEMBL5150064",
  "about": "(J Med Chem, 2022)",
  "key": {"[1]": {"target": "Phosphatidylinositol 4,5-bisphosphate 3-kinase catalytic subunit alpha isoform (Homo sapiens, UniProt P42336, H1047R)", "sequence (P42336 whole entry H1047R, canonical isoform)": "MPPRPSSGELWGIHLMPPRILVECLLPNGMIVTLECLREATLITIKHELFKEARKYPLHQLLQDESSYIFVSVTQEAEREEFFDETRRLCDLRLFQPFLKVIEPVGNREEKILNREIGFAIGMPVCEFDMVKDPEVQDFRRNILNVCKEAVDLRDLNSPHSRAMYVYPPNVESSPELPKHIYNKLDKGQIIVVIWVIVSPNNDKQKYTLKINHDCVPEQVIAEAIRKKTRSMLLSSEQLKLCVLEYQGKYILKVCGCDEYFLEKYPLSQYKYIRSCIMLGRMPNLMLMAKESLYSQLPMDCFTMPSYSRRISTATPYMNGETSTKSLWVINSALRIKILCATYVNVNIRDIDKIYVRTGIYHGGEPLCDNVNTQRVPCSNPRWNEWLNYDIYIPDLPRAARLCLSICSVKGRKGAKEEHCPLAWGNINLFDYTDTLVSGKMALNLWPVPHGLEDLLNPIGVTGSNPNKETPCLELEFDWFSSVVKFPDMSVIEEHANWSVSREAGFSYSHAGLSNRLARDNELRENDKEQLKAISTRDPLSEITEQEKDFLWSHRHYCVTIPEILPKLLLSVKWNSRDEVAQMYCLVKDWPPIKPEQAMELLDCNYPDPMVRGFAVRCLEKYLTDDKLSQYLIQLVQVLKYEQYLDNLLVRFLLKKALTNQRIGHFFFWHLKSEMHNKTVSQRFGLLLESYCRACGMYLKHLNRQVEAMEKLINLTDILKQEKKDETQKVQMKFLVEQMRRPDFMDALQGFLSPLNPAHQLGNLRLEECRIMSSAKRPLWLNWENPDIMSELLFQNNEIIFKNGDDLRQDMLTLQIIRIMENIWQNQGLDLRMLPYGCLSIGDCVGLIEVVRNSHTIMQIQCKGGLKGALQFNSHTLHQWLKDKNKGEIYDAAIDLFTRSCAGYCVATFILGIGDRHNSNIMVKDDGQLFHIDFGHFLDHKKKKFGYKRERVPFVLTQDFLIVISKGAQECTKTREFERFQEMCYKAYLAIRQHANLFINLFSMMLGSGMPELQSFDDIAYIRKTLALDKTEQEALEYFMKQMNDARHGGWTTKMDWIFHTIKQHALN"}, "[2]": {"assay": "Oral bioavailability in NCR nude mouse at 50 mg/kg measured upto 8 hrs by LC-MS/MS analysis", "assay_type": "ADME, organism-based", "details": "in vivo"}, "[3]": {"assay": "Clearance in SCID-Beige mouse plasma at 1 mg/kg, iv measured upto 24 hrs by LC-MS/MS analysis", "assay_type": "ADME, organism-based"}, "Homo sapiens": {"organism": "Homo sapiens", "assay": "Inhibition of PI3KC2b (unknown origin) at 1 uM relative to control"}, "[4]": {"assay": "Thermodynamic aqueous solubility of the compound at pH 7.4", "assay_type": "physicochemical", "details": "read-out: Therm_solubility"}, "Mus musculus": {"tested_on": "Mus musculus", "assay": "In vivo PI3K degradation in human HCC1954 cells xenografted in mouse at 50 mg/kg, po", "assay_type": "functional, organism-based"}, "Cytochrome P450 2C19": {"target": "Cytochrome P450 2C19 (Homo sapiens, UniProt P33261)", "sequence (P33261 whole entry)": "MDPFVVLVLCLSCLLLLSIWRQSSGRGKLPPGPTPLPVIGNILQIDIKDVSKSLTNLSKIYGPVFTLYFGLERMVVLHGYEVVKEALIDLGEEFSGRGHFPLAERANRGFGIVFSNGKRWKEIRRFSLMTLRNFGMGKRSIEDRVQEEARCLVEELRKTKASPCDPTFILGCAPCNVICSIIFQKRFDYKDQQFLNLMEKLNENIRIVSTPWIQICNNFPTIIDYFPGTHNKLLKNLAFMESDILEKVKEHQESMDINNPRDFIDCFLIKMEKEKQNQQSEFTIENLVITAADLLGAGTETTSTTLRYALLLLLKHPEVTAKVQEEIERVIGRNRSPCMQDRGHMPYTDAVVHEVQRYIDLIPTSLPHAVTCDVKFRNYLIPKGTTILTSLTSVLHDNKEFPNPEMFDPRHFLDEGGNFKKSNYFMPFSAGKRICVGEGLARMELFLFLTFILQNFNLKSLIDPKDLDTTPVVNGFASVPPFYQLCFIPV", "assay": "Inhibition of CYP2C19 (unknown origin)", "assay_type": "ADME"}, "[5]": {"target": "T1, Phosphatidylinositol 4,5-bisphosphate 3-kinase catalytic subunit delta isoform (Homo sapiens) (UniProt O00329)", "T1 sequence (whole entry)": "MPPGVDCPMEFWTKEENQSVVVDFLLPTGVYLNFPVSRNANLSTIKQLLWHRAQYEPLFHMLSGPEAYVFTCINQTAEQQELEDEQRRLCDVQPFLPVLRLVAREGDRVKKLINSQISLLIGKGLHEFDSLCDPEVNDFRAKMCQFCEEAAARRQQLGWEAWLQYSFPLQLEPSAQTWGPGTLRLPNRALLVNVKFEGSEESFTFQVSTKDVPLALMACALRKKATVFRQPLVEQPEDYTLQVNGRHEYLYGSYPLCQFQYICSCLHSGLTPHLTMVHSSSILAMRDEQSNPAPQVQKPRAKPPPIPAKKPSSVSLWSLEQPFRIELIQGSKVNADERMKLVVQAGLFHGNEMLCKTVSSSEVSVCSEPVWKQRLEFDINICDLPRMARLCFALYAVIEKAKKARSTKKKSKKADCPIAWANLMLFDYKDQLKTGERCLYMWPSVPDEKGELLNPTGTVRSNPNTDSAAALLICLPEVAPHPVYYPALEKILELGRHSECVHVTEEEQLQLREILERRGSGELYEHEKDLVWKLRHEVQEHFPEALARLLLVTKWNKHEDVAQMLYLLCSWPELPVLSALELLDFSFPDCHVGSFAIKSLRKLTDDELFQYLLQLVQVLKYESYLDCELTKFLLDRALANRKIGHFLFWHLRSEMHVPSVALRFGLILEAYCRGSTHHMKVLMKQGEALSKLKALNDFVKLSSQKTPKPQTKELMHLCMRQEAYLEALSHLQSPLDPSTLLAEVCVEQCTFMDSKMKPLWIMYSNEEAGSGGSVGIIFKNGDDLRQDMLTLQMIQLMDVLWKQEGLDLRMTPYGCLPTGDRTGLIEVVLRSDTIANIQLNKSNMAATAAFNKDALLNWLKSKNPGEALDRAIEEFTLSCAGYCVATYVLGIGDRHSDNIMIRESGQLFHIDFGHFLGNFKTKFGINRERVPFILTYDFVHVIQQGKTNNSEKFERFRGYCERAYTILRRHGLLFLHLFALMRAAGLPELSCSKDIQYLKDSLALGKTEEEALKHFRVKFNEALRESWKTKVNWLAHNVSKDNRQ", "assay": "Inhibition of PI3Kdelta in human B-cells assessed as reduction in CD69 expression preincubated for 1 hr followed by IgM stimulation for 18 hrs by flow cytometry analysis", "assay_type": "cell-based", "details": "B-cell"}, "[6]": {"assay": "AUC in NCR nude mouse at 50 mg/kg, po measured upto 8 hrs by LC-MS/MS analysis", "assay_type": "ADME, organism-based", "design": "dose 50 mg/kg, time < 8 hrs, route po", "details": "in vivo"}},
  "note": "Activity calls are given as the source filed them. No cut-off for these calls is given here.",
  "data": [
    {"smiles": "C[C@H](Nc1ccc2c(c1)OCCn1cc(N3C(=O)OC[C@H]3C(F)F)nc1-2)C(N)=O", "note": "[INAVOLISIB]", "values": [
      {"measurement": "EC50", "setting": "[1]", "value": 19, "unit": "nM"},
      {"measurement": "bioavailability", "setting": "[2]", "value": 59, "unit": "%"},
      {"measurement": "clearance", "setting": "[3]", "value": 37, "unit": "mL/min/kg"},
      {"measurement": "inhibition", "setting": "Homo sapiens", "value": "> 80", "unit": "%"},
      {"measurement": "solubility thermodynamic", "setting": "[4]", "value": 38, "unit": "µg/mL"},
      {"measurement": "inhibition", "setting": "Mus musculus", "value": "Active"},
      {"measurement": "IC50", "setting": "Cytochrome P450 2C19", "value": "> 10000", "unit": "nM"},
      {"measurement": "IC90", "setting": "[5]", "value": 276, "unit": "nM"},
      {"measurement": "AUC at 8 h", "setting": "[6]", "value": 32.9, "unit": "µM·h"}
    ]}
  ]
}
